Experimental data: PubChem BioAssay (NCI)
Values joined by “and” are separate entries in the source; they are usually repeats but may differ in a detail not shown here. Equal values may be shown once.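 Following 48 hours of exposure in 96-well plates, responses at five concentrations were used to interpolate endpoints linearly. GI50 marks 50% less growth. Definition used: TGI = concentration required for complete inhibition of growth.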

Key:
Experiment in all cases: NCI-60 cell line screen, 48 h
SF-268 CNS = test system: SF-268 CNS
HCT-15 colon = test system: HCT-15 colon
OVCAR-8 ovarian = test system: OVCAR-8 ovarian
UACC-257 melanoma = test system: UACC-257 melanoma
HCC-2998 colon = test system: HCC-2998 colon
SK-OV-3 ovarian = test system: SK-OV-3 ovarian
HT29 colon = test system: HT29 colon
LOX IMVI melanoma = test system: LOX IMVI melanoma
SR leukemia = test system: SR leukemia
HS 578T breast = test system: HS 578T breast
RPMI-8226 leukemia = test system: RPMI-8226 leukemia
SK-MEL-5 melanoma = test system: SK-MEL-5 melanoma
CCRF-CEM leukemia = test system: CCRF-CEM leukemia
SF-539 CNS = test system: SF-539 CNS
SK-MEL-2 melanoma = test system: SK-MEL-2 melanoma
U251 CNS = test system: U251 CNS
NCI-H460 lung = test system: NCI-H460 lung
COLO 205 colon = test system: COLO 205 colon
MCF7 breast = test system: MCF7 breast
TK-10 renal = test system: TK-10 renal
SN12C renal = test system: SN12C renal
UO-31 renal = test system: UO-31 renal
HCT-116 colon = test system: HCT-116 colon
MALME-3M melanoma = test system: MALME-3M melanoma
SK-MEL-28 melanoma = test system: SK-MEL-28 melanoma
M14 melanoma = test system: M14 melanoma
PC-3 prostate = test system: PC-3 prostate
KM12 colon = test system: KM12 colon

COC(=O)/C=C/c1cc(O)c2c(c1)C(C(=O)OC)C(c1ccc(O)c(O)c1)O2 (stereo not given)
GI50 (SF-268 CNS): 0.721 µM and 0.0833 µM
TGI (SF-268 CNS): > 89.8 µM
GI50 (HCT-15 colon): 0.0991 µM
TGI (HCT-15 colon): 68.8 µM and > 100 µM
GI50 (OVCAR-8 ovarian): 0.526 µM and 0.0809 µM
TGI (OVCAR-8 ovarian): > 54.9 µM and 12 µM
GI50 (UACC-257 melanoma): 11.5 µM and 4.5 µM
TGI (UACC-257 melanoma): 63.3 µM and 48.7 µM
GI50 (HCC-2998 colon): 1.53 µM and 0.558 µM
TGI (HCC-2998 colon): 72.7 µM and > 46.9 µM
GI50 (SK-OV-3 ovarian): 1 µM and 0.585 µM
TGI (SK-OV-3 ovarian): 71.7 µM and 35.7 µM
GI50 (HT29 colon): 3.89 µM and 1.75 µM
TGI (HT29 colon): > 57.6 µM and 24.1 µM
GI50 (LOX IMVI melanoma): 0.17 µM and 0.0633 µM
TGI (LOX IMVI melanoma): 36 µM and > 67.1 µM
GI50 (SR leukemia): 0.051 µM and 0.0369 µM
TGI (SR leukemia): > 54.9 µM and 6 µM
GI50 (HS 578T breast): 0.468 µM and 0.0614 µM
TGI (HS 578T breast): > 100 µM
GI50 (RPMI-8226 leukemia): 0.132 µM
TGI (RPMI-8226 leukemia): 16.5 µM and 10.5 µM
GI50 (SK-MEL-5 melanoma): < 0.0455 µM and 0.0566 µM
TGI (SK-MEL-5 melanoma): 5.45 µM and 4.29 µM
GI50 (CCRF-CEM leukemia): 0.0892 µM
TGI (CCRF-CEM leukemia): 22.5 µM and > 100 µM
GI50 (SF-539 CNS): 0.255 µM
TGI (SF-539 CNS): 0.72 µM and 1.19 µM
GI50 (SK-MEL-2 melanoma): 0.454 µM and 0.093 µM
TGI (SK-MEL-2 melanoma): 35.2 µM and > 55 µM
GI50 (U251 CNS): 0.116 µM
TGI (U251 CNS): 46.2 µM and 23.2 µM
GI50 (NCI-H460 lung): 1.46 µM and 0.363 µM
TGI (NCI-H460 lung): 12.3 µM and 12.1 µM
GI50 (COLO 205 colon): 4.19 µM and 2.49 µM
TGI (COLO 205 colon): 29 µM and 12.3 µM
GI50 (MCF7 breast): 0.0337 µM
TGI (MCF7 breast): 82.1 µM and > 100 µM
GI50 (TK-10 renal): 5.24 µM and 1.27 µM
TGI (TK-10 renal): 67.5 µM and > 23.5 µM
GI50 (SN12C renal): 0.614 µM
TGI (SN12C renal): > 100 µM
GI50 (UO-31 renal): 0.855 µM and 0.301 µM
TGI (UO-31 renal): 23.6 µM and 30.7 µM
GI50 (HCT-116 colon): 0.104 µM and 0.0405 µM
TGI (HCT-116 colon): > 100 µM
GI50 (MALME-3M melanoma): 12.5 µM and 17.7 µM
TGI (MALME-3M melanoma): 62 µM and 86.1 µM
TGI (SK-MEL-28 melanoma): 60.8 µM and > 100 µM
GI50 (M14 melanoma): 0.131 µM and 0.0279 µM
TGI (M14 melanoma): > 41.3 µM
GI50 (PC-3 prostate): 0.573 µM and 0.817 µM
TGI (PC-3 prostate): 69 µM and 65.8 µM
GI50 (KM12 colon): 0.395 µM
TGI (KM12 colon): 20.7 µM and 16.6 µM
